According to US20230192772A1, “ANTIMICROBIAL PEPTIDES AND USES THEREOF” (SORBONNE UNIVERSITE, priority 2016, published 2023):
Ends that are not written are not given here.

Legend:
Type in all cases: cell-based
[1] = Cytotoxic effects on immune cells obtained from mouse bone marrow; conditions: mouse immune cells originating from bone marrow, read-out: LC50
Description: (§1) The mouse immune cells are obtained from C57BL/6 or Balb/c mouse bone marrow. The peptides are incubated at 37° C., 5% CO2 in the presence of 500,000 immune cells in RPMI medium at varied concentrations for 2 hours. Peptide-free cells are used as the negative control and cells in the presence of DMSO (30%) are used as the positive control. After incubation, the cells are washed then labelled with Trypan blue so as to measure the cell viability by microscope counting. The LC50 is then calculated as being the concentration of DA2N, K12A and DANa peptides inducing the death of 50% of the immune cells.

[2] = test system: Enterococcus faecalis CIP 103015; experiment: MIC/MBC (Example 10, MH medium); conditions: Table 5; E. faecalis CIP 103015
Description: (§2) The MIC is determined using a growth inhibition test in liquid medium. The MIC is defined as being the lowest peptide concentration capable of inhibiting the bacterial strain tested, after incubation for 18 h at 37° C. The test was carried out in a sterile microtitration plate containing 96 wells. A series of increasing concentrations of each peptide (0.2 to 100 µM) was prepared beforehand in sterile MilliQ water. In each well, 10 µL of peptide was incubated with 90 µL of bacterial suspension (10^7 cfu/mL) in yeast extract-free LB medium. The microplate was incubated at 37° C. for 18 h. The bacterial growth was evaluated by measuring the OD at 620 nm using a plate reader.
(§3) The negative growth inhibition control was obtained by replacing the solution containing the peptide by sterile MilliQ water. The positive control suitable for completely inhibiting the growth of the bacterial strains was obtained by replacing the solution containing the peptide by 10 µL of formaldehyde.
(§4) The results are interpreted by calculating the percentage of bacterial growth in each well according to the formula:
(§5) %Growth = (OD well - OD of T0)/(OD of T100-OD of T0)*100 where
(§6) • OD of T100 = OD of growth control (bacterial suspension free from sample under test, 100% growth), • OD of T0 = OD of sterility control (culture medium + bacterium + 10 µL formaldehyde, 0% growth) and • OD well = OD of well for which it is sought to calculate the growth percentage (bacterial suspension + peptide under test).
(§7) The MBC is defined as being the minimum peptide concentration leaving no surviving bacteria of the inoculum after incubation at 37° C. for 24 hours. This test consists of smearing the contents of the well wherein the peptide has inhibited bacterial growth on a Petri dish (LB agar), followed by incubation for 24 h at 37° C.
(§8) A 10 mL preculture in Muller-Hinton (MH) medium is prepared by inoculating a colony of the bacterial strain of interest. The preculture is incubated at 37° C. under stirring overnight. The culture is subcultured to 1:100 under the same conditions. The culture concentration is evaluated by measuring the turbidity at 600 nm (OD600 nm 1.0 = 5 × 10^8 CFU/mL for E. coli (Gram-negative bacteria) and 1.5 × 10^8 CFU/mL for S. aureus (Gram-positive bacteria). Once the exponential growth phase (OD600 nm = 0.3 - 0.7) has been achieved, the cultures are diluted in MH medium so as to obtain 10^6 CFU/mL (final inoculum concentration).
(§9) The MIC and the MBC were determined as per the protocol described in part 2.1 of Example 2.

[3] = test system: Escherichia coli ATCC 8739; experiment: MIC/MBC (Example 10, MH medium); conditions: Table 5; E. coli ATCC 8739
Description: as §2, §3, §4, §5, §6, §7, §8, §9

[4] = test system: Pseudomonas aeruginosa ATCC 9027; experiment: MIC/MBC (Example 10, MH medium); conditions: Table 5; P. aeruginosa ATCC 9027
Description: as §2, §3, §4, §5, §6, §7, §8, §9

[5] = test system: Staphylococcus aureus ATCC 6538; experiment: MIC/MBC (Example 10, MH medium); conditions: Table 5; S. aureus ATCC 6538
Description: as §2, §3, §4, §5, §6, §7, §8, §9

[6] = test system: immune cells obtained from mouse bone marrow; experiment: Cytotoxic effects on immune cells obtained from mouse bone marrow; conditions: 12.5 µM; 2 hours
Description: as §1

| Substance | CC50 at 2 hours [1] [µM] | MBC [2] [µM] | MIC [2] [µM] | MBC [3] [µM] | MIC [3] [µM] | MBC [4] [µM] | MIC [4] [µM] | MBC [5] [µM] | MIC [5] [µM] | death of immune cells [6] |
| --- | --- | --- | --- | --- | --- | --- | --- | --- | --- | --- |
| ALWKTLLKKVGAVAGKAVLNAVTNMANQN [K12A] | 6.5 | 12.5 | 12.5 | 1.6 | 1.6 | 6.3 | 6.3 | 6.3 | 3.1 | – |
| ALWKTLLKKVGKVAGKAVLNAVTNMANQN-NH2 [DA2Na] | 3.75 | 3.1 | 3.1 | 0.8 | 0.8 | 1.6 | 1.6 | 1.6 | 0.8 | – |
| ALWKTLLKKVGKVAGKAVLNAVTNMANQNE-OH [DA2NE] | – | 50 | 12.5 | 1.6 | 0.8 | 3.1 | 3.1 | 12.5 | 3.1 | induce the death of immune cells at a concentration of 12.5 µM with a comparable efficacy to DA2N |
